According to US4845244A, “Production of hydroxyphenylpropionic acid ester having a novel crystalline structure” (Sumitomo Chemical Company, Limited, priority 1985, dated 1989):

How the values were obtained:
[1] = Solubility in cyclohexane (Table 2); format: physicochemical; conditions: for Solubility: cyclohexane
[2] = Solubility in water-insoluble recrystallization solvents (statement); format: physicochemical; conditions: water-insoluble solvent other than alicyclic or aliphatic hydrocarbons; in words

| Solubility ([1]; 20 °C) [g/100 g cyclohexane] | Solubility ([1]; 30 °C) [g/100 g cyclohexane] | Solubility ([1]; 40 °C) [g/100 g cyclohexane] | Solubility ([1]; 50 °C) [g/100 g cyclohexane] | Solubility ([1]; 55 °C) [g/100 g cyclohexane] | Solubility ([1]; 60 °C) [g/100 g cyclohexane] | Compound | solubility of the αβ-crystals in water-insoluble solvent [2] | solubility compared with αβ-crystals ([1]; in words, refers to Table 2) |
| --- | --- | --- | --- | --- | --- | --- | --- | --- |
| 0.2 | 0.5 | 1.4 | 4.1 | 8.5 | > 60 | Cc1cc(CCC(=O)OCC(C)(C)C2OCC3(CO2)COC(C(C)(C)COC(=O)CCc2cc(C)c(O)c(C(C)(C)C)c2)OC3)cc(C(C)(C)C)c1O (stereo not drawn) [α.eta.-Crystal, 3,9-bis{2-[3-(3-tert-butyl-4-hydroxy-5-methylphenyl)propionyloxy]-1,1-dimethylethyl}-2,4,8,10-tetraoxaspiro[5.5]undecane] | so high that the δ-crystals containing substantially no αβ-crystals can be obtained even at room temperature | – |
| 0.06 | 0.1 | 0.2 | 0.5 | 1.1 | 2.1 | Cc1cc(CCC(=O)OCC(C)(C)C2OCC3(CO2)COC(C(C)(C)COC(=O)CCc2cc(C)c(O)c(C(C)(C)C)c2)OC3)cc(C(C)(C)C)c1O (centres unmarked) [δ-Crystal, 3,9-bis{2-[3-(3-tert-butyl-4-hydroxy-5-methylphenyl)propionyloxy]-1,1-dimethylethyl}-2,4,8,10-tetraoxaspiro[5.5]undecane] | – | lower solubility than that of the αβ-crystals |
